Test results published in patent US20230321083A1, “Inhibitors of GPR174 and Uses Thereof” (Omeros Corporation, priority 2016, published 2023).

Columns and labels:
Format in all cases: cell-based
[1] = tested on: human PBMCs; assay: Treg (FoxP3/Helios) flow cytometry in anti-CD3/anti-CD28 stimulated human PBMCs
Experimental: (§1) A fraction of the cells was taken for staining on day 3 post-stimulation, while the rest of the cells were split 1:4 with fresh medium and used for staining on day 7 post-stimulation. To determine the fraction of natural Treg (nTreg) cells (FoxP3^+Helios^+), PBMCs were washed, stained with fluorescently labeled anti-CD4 antibodies, fixed, permeabilized and stained with a mixture of fluorescent anti-FoxP3 and anti-Helios antibodies. Labeled cells were analyzed by flow cytometry for populations stained for these three markers. Each experiment was performed in triplicate and was repeated five times.
as §1, with “three” for “five”
as §1, with “day 2” for “day 3”, “(FoxP3^+Helios^+), PBMC” for “(FoxP3^+Helios^+), PBMCs”

[2] = tested on: human PBMCs; assay: Cytokines in culture supernatants of stimulated human PBMCs (ELISA / LEGENDplex)
Experimental: The effect of compound #10 on IL-2 and IFN-γ production in human PBMCs was determined as follows. PBMCs from a single donor were adjusted to a density of 2×10^6 cells/mL, stimulated with 100 ng/mL of anti-CD3 and 100 ng/mL of anti-CD28 antibodies and treated with 1 μM, 3 μM, or 10 μM of compound #10. Supernatant from these cells was taken on day 2 post-stimulation and the levels of IL-2 and IFN-γ were determined by ELISA assay using Ready-SET-Go ELISA kits from Affimetrix Ebioscience according to the manufacturer's instructions.
The effect of compound #10 on IL-2 production in human PBMCs was determined as follows. […] Supernatant from these cells was taken on day 3 post-stimulation and the levels of IL-2 were determined by ELISA assay using Ready-SET-Go™ ELISA kits from Affimetrix Ebioscience and LEGENDplex™ bead-based immunoassays from BioLegend according to the manufacturer's instructions.
The effect of compound #10 on IL-2 production in human PBMC from each donor was determined as follows. PBMC from each donor were adjusted to a density of 2×10^6 cells/mL, stimulated with 100 ng/mL of anti-CD3 and 100 ng/mL of anti-CD28 antibodies and treated with 30 μM compound #10. Supernatant from these cells was taken on day 2 post-stimulation and the levels of IL-2 were determined by ELISA assay using LEGENDplex™ bead-based immunoassays from BioLegend (San Diego, CA) according to the manufacturer's instructions.
The effect of compound #10 on the production of a panel of additional cytokines (interleukin 5 (IL-5), interleukin 13 (IL-13), interleukin 6 (IL-6), interleukin 9 (IL-9), interleukin 10 (IL-10), interferon gamma (IFN-γ), tumor necrosis factor alpha (TNF-α), interleukine 17A (IL-17A), interleukin 17F (IL-17F), interleukin 4 (IL-4) and interleukin 22 (IL-22)) in pooled human PBMC obtained from eight donors was determined as follows. PBMC from eight donors were pooled, then adjusted to a density of 2×10^6 cells/mL, stimulated with 100 ng/mL of anti-CD3 and 100 ng/mL of anti-CD28 antibodies and treated with 30 μM compound #10. Supernatant from these cells was taken on day 2 post-stimulation and the levels of IL-5, IL-13, IL-6, IL-9, IL-10, IFN-γ, TNF-α, IL-17A, IL-17F, IL-4 and IL-22 were determined by ELISA using LEGENDplex™ bead-based immunoassays from BioLegend (San Diego, CA) according to the manufacturer's instructions.

[3] = tested on: CTLA4 expression in human PBMC T cells; assay: CTLA4 expression on T cell subsets in human PBMC cultures; conditions: 0.19-6.0 μM; one day post-stimulation; dose-dependent
Experimental: PBMC cells from a single donor were cultured overnight with additional irradiated antigen-presenting cells (APC) in the presence of various concentrations of GPR174 inhibitory compound #10 (0.019 to 6 μM) or equivalent concentrations of vehicle (DMSO). Anti-CD3 (OKT3) was then added to the cultures for an additional 24 hours. The cells were analyzed by flow cytometry for expression of FOXP3, CTLA-4, CD4, CD3, CD45RA and CD25.

[4] = day 2, 30 μM, PBMC from eight donors, p<0.001
[5] = day 2, 30 μM, PBMC from eight donors, p<0.05

## CC1CCN(c2cc(N3CCN(S(=O)(=O)c4ccccc4)CC3)c([N+](=O)[O-])cc2F)CC1 [Compound 10]
[1]; day 3 post-stimulation, 100 μM, p=0.03 vs vehicle
  fraction of FoxP3+Helios− cells in CD4+ population: significantly increased
[1]; day 7, 30 μM, PBMC from eight donors
  abundance of FoxP3+Helios+ nTreg cells (fraction of vehicle): significantly reduced
[1]; day 7, 3, 10, 30 μM, single donor, dose-dependent
  abundance of FoxP3+Helios+ nTreg cells in CD4+ population: significantly reduced
[1]; day 7 post-stimulation, 100 μM, p=0.01 vs vehicle
  abundance of FoxP3+Helios+ nTreg cells in CD4+ population: significantly reduced
[2]; [4]
  IL-6 in culture supernatants (fold over vehicle): statistically significant fold increase
  IL-17A in culture supernatants (fold over vehicle): statistically significant fold decrease
[2]; [5]
  IFN-γ in culture supernatants (fold over vehicle): statistically significant fold increase
  IL-10 in culture supernatants (fold over vehicle): statistically significant fold increase
  TNF-α in culture supernatants (fold over vehicle): statistically significant fold increase
[2]; day 3 post-stimulation, 3, 10, 30, 60 μM, single donor
  IL-2 (pg/mL) in culture supernatants: increased IL-2 levels in culture supernatants in a dose-dependent manner
[3]
  CTLA4 positive fraction of memory Treg (CD45RA−FOXP3+): reduced
  CTLA4 positive fraction of memory non-Treg (CD45RA−FOXP3−): reduced
  CTLA4 positive fraction of naïve non-Treg cells (CD45RA+FOXP3−): reduced
  CTLA-4 positive fraction of naïve Treg cells (CD45RA+FOXP3+): reduced
